Values quoted from earlier work, collected in US20120101124A1, “1,2,4-OXADIAZOL DERIVATIVES, THEIR PHARMACEUTICAL COMPOSITIONS AND THEIR USE AS SPHINGOSINE 1-PHOSPHATE 1 RECEPTOR AGONISTS” (GLAXO GROUP LIMITED, priority 2009, published 2012).

Tests used:
circulating lymphocytes = conditions: animals and man
[1] = clinical studies

**Q.** With `CCCCCCCCc1ccc(CCC(N)(CO)CO)cc1` [FTY720] as the compound, how does the “effect on circulating lymphocytes” value (circulating lymphocytes) read?
**A.** Its value is “reduce circulating lymphocytes in animals and man”.

**Q.** And the bradycardia on treatment [1]?
**A.** The bradycardia on treatment was “bradycardia in the first 24 hours of treatment”.
